Biological target: T1, human CRHR2-alpha (Homo sapiens, UniProt Q13324)
T1 sequence (Q13324 1-411): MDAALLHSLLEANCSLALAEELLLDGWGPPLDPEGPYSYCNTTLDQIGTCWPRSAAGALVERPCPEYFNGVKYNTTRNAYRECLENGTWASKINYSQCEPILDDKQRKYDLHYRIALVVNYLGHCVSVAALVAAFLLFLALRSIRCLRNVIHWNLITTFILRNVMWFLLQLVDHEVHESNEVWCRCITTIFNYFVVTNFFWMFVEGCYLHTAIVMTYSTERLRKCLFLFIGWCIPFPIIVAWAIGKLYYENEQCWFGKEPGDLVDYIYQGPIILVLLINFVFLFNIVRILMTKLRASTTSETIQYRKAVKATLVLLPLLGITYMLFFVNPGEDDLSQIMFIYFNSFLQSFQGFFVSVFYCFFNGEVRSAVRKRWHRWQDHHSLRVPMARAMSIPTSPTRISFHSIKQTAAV
Experiment: cAMP functional assay for human CRHR2 (LANCE Ultra cAMP, TR-FRET)
Assay type: cell-based
Conditions: CHO-K1 cells expressing human CRHR2-alpha, agonist human urocortin2 at EC80, cAMP; read-out: IC50 against CRHR2
Summary of the method: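 First, starved and frozen CHO-K1 cells expressing the receptor are thawed into IBMX-containing HBSS buffer (pH 7.4). Next, compounds are added for 30 min at 25° C. Then agonist at EC80 (urocortin2 or CRF, per receptor) is added for another 30 min, followed by cAMP detection reagents.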

Row | Compound | IC50
1 | Cc1ncc(Cl)cc1C(=O)N[C@H]1CC[C@H](Cn2c(=O)n(-c3cccc(-n4ccnc4)c3)c3ccccc32)CC1 [Example 539, N-((1r,4r)-4-((3-(3-(1H-imidazol-1-yl)phenyl)-2-oxo-2,3-dihydro-1H-benzo[d]imidazol-1-yl)methyl)cyclohexyl)-5-chloro-2-methylnicotinamide] | < 300 nM
2 | Cc1ncc(Cl)cc1C(=O)N[C@H]1CC[C@H](Cn2c(=O)n(-c3cccc(-n4cccn4)c3)c3ccccc32)CC1 [Example 541, N-((1r,4r)-4-((3-(3-(1H-pyrazol-1-yl)phenyl)-2-oxo-2,3-dihydro-1H-benzo[d]imidazol-1-yl)methyl)cyclohexyl)-5-chloro-2-methylnicotinamide] | < 300 nM
3 | CNC(=O)c1ccc(-n2c(=O)n(C[C@H]3CC[C@H](NC(=O)c4cc(Cl)cnc4Cl)CC3)c3ccccc32)cn1 [Example 542, 5-(3-(((1r,4r)-4-(2,5-dichloronicotinamido)cyclohexyl)methyl)-2-oxo-2,3-dihydro-1H-benzo[d]imidazol-1-yl)-N-methylpicolinamide] | < 300 nM
4 | O=C(N[C@H]1CC[C@H](Cn2c(=O)n(-c3ccc(NC4CC4)nc3)c3ccccc32)CC1)c1cc(Cl)cnc1C(F)F [Example 543, 5-chloro-N-((1r,4r)-4-((3-(6-(cyclopropylamino)pyridin-3-yl)-2-oxo-2,3-dihydro-1H-benzo[d]imidazol-1-yl)methyl)cyclohexyl)-2-(difluoro-methyl)nicotinamide] | < 300 nM
5 | CNc1ncc(-n2c(=O)n(C[C@H]3CC[C@H](NC(=O)c4cc(Cl)cnc4C(F)(F)F)CC3)c3ccccc32)cc1C [Example 544, 5-chloro-N-((1r,4r)-4-((3-(5-methyl-6-(methylamino)pyridin-3-yl)-2-oxo-2,3-dihydro-1H-benzo[d]imidazol-1-yl)methyl)cyclo-hexyl)-2-(trifluoromethyl) nicotinamide] | < 300 nM
6 | CNc1cc(C)c(-n2c(=O)n(C[C@H]3CC[C@H](NC(=O)c4cc(Cl)cnc4C(F)(F)F)CC3)c3ccccc32)cn1 [Example 545, 5-chloro-N-((1r,4r)-4-((3-(4-methyl-6-(methylamino)pyridin-3-yl)-2-oxo-2,3-dihydro-1H-benzo[d]imidazol-1-yl)methyl)cyclohexyl)-2-(trifluoromethyl)nicotinamide] | < 300 nM
7 | Cn1ncc2cc(-n3c(=O)n(C[C@H]4CC[C@H](NC(=O)c5cc(Cl)cnc5C(F)F)CC4)c4cccnc43)ccc21 [Example 547, 5-chloro-2-(difluoromethyl)-N-((1r,4r)-4-((3-(1-methyl-1H-indazol-5-yl)-2-oxo-2,3-dihydro-1H-imidazo[4,5-b]pyridin-1-yl)methyl)cyclo-hexyl)nicotinamide] | < 300 nM
8 | CNC(=O)c1ccc(-n2c(=O)n(C[C@H]3CC[C@H](NC(=O)c4cc(Cl)cnc4C(F)F)CC3)c3c(F)cccc32)cn1 [Example 548, 5-(3-(((1r,4r)-4-(5-chloro-2-(difluoromethyl)nicotina-mido)cyclohexyl)methyt)-4-fluoro-2-oxo-2,3-dihydro-1H-benzo[d]imidazol-1-yl)-N-methylpicolinamide] | < 300 nM
9 | O=C(NCCF)c1ccc(-n2c(=O)n(C[C@H]3CC[C@H](NC(=O)c4cc(Cl)cnc4C(F)F)CC3)c3ccccc32)cn1 [Example 549, 5-(3-(((1r,4r)-4-(5-chloro-2-(difluoromethyl)nicotina-mido)cyclohexyl)methyl)-2-oxo-2,3-dihydro-1H-benzo[d]imidazol-1-yl)-N-(2-fluoroethyl)picolinamide] | < 300 nM
10 | CCNC(=O)c1ccc(-n2c(=O)n(C[C@H]3CC[C@H](NC(=O)c4cc(Cl)cnc4C(F)F)CC3)c3ccccc32)cn1 [Example 551, 5-(3-(((1r,4r)-4-(5-chloro-2-(difluoromethyl)nicotina-mido)cyclohexyl)methyl)-2-oxo-2,3-dihydro-1H-benzo [d]imidazol-1-yl)-N-ethylpicolinamide] | < 300 nM

— patent publication US11802120B2, “Fused cyclic urea derivatives as CRHR2 antagonist” (RaQualia Pharma Inc., priority 2018, dated 2023)
